Measurements published in publication PMC10272180, “Ancient medicinal plant rosemary contains a highly efficacious and isoform-selective KCNQ potassium channel opener” (Communications Biology, 2023).

Key:
[1] = molecular target: KCNQ3* (KCNQ3-A315T) (Homo sapiens, UniProt O43525, A315T); test: TEVC of KCNQ3* homomers expressed in Xenopus laevis oocytes; format: cell-based
[2] = molecular target: T1, KCNQ3/5 (Homo sapiens, UniProt O43525+Q9NR82); test: TEVC of KCNQ3/5 heteromers expressed in Xenopus laevis oocytes; format: cell-based; settings: 5 µM each substance
T1 construct: expressed in transfected cells; host or cells: Xenopus laevis oocytes co-injected with cRNAs
Description: (§1) We generated cRNA transcripts encoding human KCNQ1, 2, 3, and 5 (wild-type and mutant) by in vitro transcription using the mMessage mMachine kit (Thermo Fisher Scientific, Waltham, MA, USA) according to manufacturer’s instructions, after vector linearization, from cDNA sub-cloned into expression vectors (pTLNx and pXOOM) incorporating Xenopus laevis β-globin 5’ and 3’ UTRs flanking the coding region to enhance translation and cRNA stability. Mutant KCNQ cDNAs were generated by Genscript (Piscataway, NJ, USA) and cRNAs made as above. We injected defolliculated stage V and VI Xenopus laevis oocytes (Xenoocyte, Dexter, MI, USA) with KCNQ cRNAs (2–10 ng) and incubated the oocytes at 16 °C in ND96 oocyte storage solution containing penicillin and streptomycin, with daily washing, for 2–4 days prior to two-electrode voltage-clamp (TEVC) recording.
(§2) We performed TEVC at room temperature using an OC-725C amplifier (Warner Instruments, Hamden, CT, USA) and pClamp10 software (Molecular Devices, Sunnyvale, CA, USA) 2–4 days after cRNA injection. We placed oocytes in a small-volume oocyte bath (Warner) and viewed them with a dissection microscope for cellular electrophysiology. We sourced chemicals from Sigma-Aldrich (St. Louis, MO, USA) and Combi-Blocks (San Diego, CA, USA). We studied effects of Salvia rosmarinus extracts and of compounds, solubilized directly in bath solution (in mM): 96 NaCl, 4 KCl, 1 MgCl2, 1 CaCl2, 10 HEPES (pH 7.6). We introduced extracts or compounds into the oocyte recording bath by gravity perfusion at a constant flow of 1 ml per minute for 3 min prior to recording. Pipettes were of 1-2 MΩ resistance when filled with 3 M KCl. […] We analyzed data using Clampfit (Molecular Devices) and Graphpad Prism software (GraphPad, San Diego, CA, USA), stating values as mean ± SEM. We plotted raw or normalized tail currents versus prepulse voltage and fitted with a single Boltzmann function:1 g=(A1−A2)/1+exp[V1/2−V/Vs]y+A2 where g is the normalized tail conductance, A1 is the initial value at -∞, A2 is the final value at +∞, V1/2 is the half-maximal voltage of activation and Vs the slope factor. We fitted activation and deactivation kinetics with single exponential functions.

[3] = molecular target: T2, KCNQ2/3 (Homo sapiens, UniProt O43525+O43526); test: TEVC of KCNQ2/3 heteromers expressed in Xenopus laevis oocytes; format: cell-based
T2 construct: expressed in transfected cells; host or cells: Xenopus laevis oocytes co-injected with cRNAs
Description: as §1
as §2, with “We” for “We performed TEVC at room temperature using an OC-725C amplifier (Warner Instruments, Hamden, CT, USA) and pClamp10 software (Molecular Devices, Sunnyvale, CA, USA) 2–4 days after cRNA injection. We”

[4] = Solubility limit for testing in bath solution; format: physicochemical
Description: We performed TEVC at room temperature using an OC-725C amplifier (Warner Instruments, Hamden, CT, USA) and pClamp10 software (Molecular Devices, Sunnyvale, CA, USA) 2–4 days after cRNA injection. We placed oocytes in a small-volume oocyte bath (Warner) and viewed them with a dissection microscope for cellular electrophysiology. We sourced chemicals from Sigma-Aldrich (St. Louis, MO, USA) and Combi-Blocks (San Diego, CA, USA). We studied effects of Salvia rosmarinus extracts and of compounds, solubilized directly in bath solution (in mM): 96 NaCl, 4 KCl, 1 MgCl2, 1 CaCl2, 10 HEPES (pH 7.6). We introduced extracts or compounds into the oocyte recording bath by gravity perfusion at a constant flow of 1 ml per minute for 3 min prior to recording. Pipettes were of 1-2 MΩ resistance when filled with 3 M KCl. We recorded currents in response to voltage pulses between −120 mV and +40 mV at 10 mV intervals from a holding potential of −80 mV, to yield current-voltage relationships and examine activation kinetics. We analyzed data using Clampfit (Molecular Devices) and Graphpad Prism software (GraphPad, San Diego, CA, USA), stating values as mean ± SEM. We plotted raw or normalized tail currents versus prepulse voltage and fitted with a single Boltzmann function:1 g=(A1−A2)/1+exp[V1/2−V/Vs]y+A2 where g is the normalized tail conductance, A1 is the initial value at -∞, A2 is the final value at +∞, V1/2 is the half-maximal voltage of activation and Vs the slope factor. We fitted activation and deactivation kinetics with single exponential functions.

[5] = molecular target: KCNQ2 (Homo sapiens, UniProt O43526); test: TEVC of KCNQ2 homomers expressed in Xenopus laevis oocytes; format: cell-based
Description: as §1, §2

[6] = system: voltage-gated calcium channel, Cav3.2; design: method as in PMID 29073181; settings: cited from earlier work
[7] = system: KCNQ3/5; design: method as in PMID 11159685; settings: cited from earlier work
[8] = system: KCNQ2/3 channels; design: method as in PMID 35459955; settings: cited from earlier work
[9] = 5 µM each substance, table head prints KCNQ3*, text says KCNQ3/5

Sequence of KCNQ3* (KCNQ3-A315T) (O43525 whole entry A315T): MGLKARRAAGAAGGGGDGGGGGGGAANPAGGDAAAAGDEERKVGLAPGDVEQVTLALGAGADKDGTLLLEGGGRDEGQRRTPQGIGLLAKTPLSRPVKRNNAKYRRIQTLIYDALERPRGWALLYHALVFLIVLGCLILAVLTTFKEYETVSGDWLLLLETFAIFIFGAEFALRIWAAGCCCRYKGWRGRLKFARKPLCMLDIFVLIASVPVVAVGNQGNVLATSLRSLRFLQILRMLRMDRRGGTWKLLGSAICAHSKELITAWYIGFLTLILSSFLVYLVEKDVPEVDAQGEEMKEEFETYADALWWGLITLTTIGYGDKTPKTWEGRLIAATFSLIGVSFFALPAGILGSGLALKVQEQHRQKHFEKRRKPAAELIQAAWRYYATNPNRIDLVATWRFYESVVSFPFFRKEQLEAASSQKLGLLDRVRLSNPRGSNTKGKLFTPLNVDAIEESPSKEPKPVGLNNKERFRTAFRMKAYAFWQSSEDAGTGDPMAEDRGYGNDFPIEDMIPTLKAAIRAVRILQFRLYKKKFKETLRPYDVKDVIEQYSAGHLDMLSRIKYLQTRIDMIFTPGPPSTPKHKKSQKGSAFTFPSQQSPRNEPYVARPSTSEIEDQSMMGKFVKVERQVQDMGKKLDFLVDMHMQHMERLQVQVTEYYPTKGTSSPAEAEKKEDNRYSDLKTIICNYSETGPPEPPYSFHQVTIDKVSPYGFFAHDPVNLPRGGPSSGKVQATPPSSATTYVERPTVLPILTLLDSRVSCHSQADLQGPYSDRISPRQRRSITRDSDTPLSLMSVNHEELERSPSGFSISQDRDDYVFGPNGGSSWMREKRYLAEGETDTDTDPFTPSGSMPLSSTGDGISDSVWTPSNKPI

C1=C2CCCN[C@H]2[C@@H]2C[C@H]1[C@H]1CCCCN1C2 [Aloperine, aloperine, reference compound]
Slope [1, 9]: 6.96 ± 0.67 mV
V0.5 Normalized tail current [1, 9]: -46.72 ± 0.78 mV
channel opening [2]: weak KCNQ3/5 opener

CC(=O)Oc1c(C(C)C)cc2c(c1OC(C)=O)C1(C(=O)O)CCCC(C)(C)C1CC2 (stereo not shown) [Carnosic acid diacetate]
Slope ([3]; 10 µM): 6.11 ± 0.49 mV
V0.5 Normalized tail current ([3]; 10 µM): -38.43 ± 0.56 mV
shift in V0.5act / opening ([3]; 10 µM): only weakly negative-shifted
Slope ([1]; 10 µM): 5.06 ± 0.63 mV
V0.5 Normalized tail current ([1]; 10 µM): -50.38 ± 0.69 mV
shift in V0.5act / opening ([1]; 10 µM): only weakly negative-shifted
solubility (highest testable concentration) ([4]; pH 7.6): solubility issues

CC(C)c1cc2c3c(c1O)OC(=O)C31CCCC(C)(C)C1CC2 (stereo not shown) [Carnosic gamma lactone, carnosic acid γ-lactone]
Slope ([3]; 10 µM): 6.78 ± 0.62 mV
V0.5 Normalized tail current ([3]; 10 µM): -40.71 ± 0.71 mV
effect on EM of unclamped oocytes ([3]; 10 µM): without hyperpolarizing
shift in V0.5act / opening ([3]; 10 µM): −10 mV
Slope ([1]; 10 µM): 4.81 ± 0.56 mV
V0.5 Normalized tail current ([1]; 10 µM): -54.06 ± 0.70 mV
effect on EM of unclamped oocytes ([1]; 10 µM): without hyperpolarizing
shift in V0.5act / opening ([1]; 10 µM): −8.7 mV
solubility (highest testable concentration) ([4]; bath solution): solubility issues
Slope ([5]; 10 µM): 6.47 ± 0.40 mV
V0.5 Normalized tail current ([5]; 10 µM): -46.18 ± 0.46 mV

CC(C)c1cc2c(c(O)c1O)[C@@]13CCCC(C)(C)[C@@H]1C[C@@H]2OC3=O [Carnosol]
Slope ([3]; 100 µM): 5.82 ± 0.75 mV
V0.5 Normalized tail current ([3]; 100 µM): -47.80 ± 0.87 mV
effect on EM of unclamped oocytes ([3]; 100 µM): did not alter
shift in V0.5act ([3]; 100 µM): no shift
Slope ([1]; 100 µM): 5.00 ± 1.11 mV
V0.5 Normalized tail current ([1]; 100 µM): -61.13 ± 1.28 mV
shift in V0.5act ([1]; 100 µM): −11 mV
effect on EM of unclamped oocytes ([1]; 100 µM (hesperidin 30 µM)): did not alter
Slope ([5]; 100 µM): 3.97 ± 1.31 mV
V0.5 Normalized tail current ([5]; 100 µM): -57.08 ± 1.31 mV
effect on EM of unclamped oocytes ([5]; 100 µM): did not alter

COc1c(C(C)C)cc2c(c1OC)C13CCCC(C)(C)C1CC2OC3=O (stereo not shown) [Dimethylcarnosol, dimethyl carnosol]
Slope ([3]; 100 µM): 6.71 ± 0.64 mV
V0.5 Normalized tail current ([3]; 100 µM): -37.81 ± 0.73 mV
Slope ([1]; 100 µM): 4.92 ± 0.40 mV
V0.5 Normalized tail current ([1]; 100 µM): -49.25 ± 0.43 mV
hyperpolarization of EM ([1]; 100 µM, unclamped oocytes): > 8 mV

COc1ccc([C@@H]2CC(=O)c3c(O)cc(O[C@@H]4O[C@H](CO[C@@H]5O[C@@H](C)[C@H](O)[C@@H](O)[C@H]5O)[C@@H](O)[C@H](O)[C@H]4O)cc3O2)cc1O [Hesperidin, hesperidin]
Slope ([3]; 30 µM): 7.73 ± 0.60 mV
V0.5 Normalized tail current ([3]; 30 µM): -48.08 ± 0.71 mV
V0.5act shift ([3]; 30 µM): −10.4 mV
V0.5 non-normalized tail current ([3]; 30 µM): -48.30 ± 2.77 mV
effect on EM of unclamped oocytes ([3]; 30 µM): hyperpolarized
Slope ([1]; 30 µM): 4.65 ± 0.46 mV
V0.5 Normalized tail current ([1]; 30 µM): -55.97 ± 0.57 mV
V0.5 non-normalized tail current ([1]; 30 µM): -55.83 ± 1.97 mV
shift in V0.5act ([1]; 30 µM): ~ −10 mV
effect on EM of unclamped oocytes ([1]; 100 µM (hesperidin 30 µM)): hyperpolarized
solubility ([4]; oocyte recording bath solution, pH 7.6, aqueous buffer, read-out: solubility (highest testable concentration)): ≤ 30 µM
channel opening ([5]; 30 µM): did not open
Slope ([5]; 100 µM): 6.54 ± 0.41 mV
V0.5 Normalized tail current ([5]; 100 µM): -45.73 ± 0.48 mV

COC(=O)[C@]12CCCC(C)(C)[C@@H]1CCc1cc(C(C)C)c(O)c(O)c12 [Methyl carnosate, methyl carnosate]
Slope ([3]; 10 µM): 10.46 ± 0.87 mV
V0.5 Normalized tail current ([3]; 10 µM): -34.00 ± 0.97 mV
shift in V0.5act / opening ([3]; 10 µM): did not open
Slope ([1]; 10 µM): 4.63 ± 0.74 mV
V0.5 Normalized tail current ([1]; 10 µM): -47.09 ± 0.74 mV
shift in V0.5act / opening ([1]; 10 µM): only a weak activator
solubility (highest testable concentration) ([4]; pH 7.6): poor solubility

CC(C)c1cc2c(cc1O)C1(C(=O)O)CCCC(C)(C)C1CC2 (stereo not shown) [Pisiferic acid, pisiferic acid]
Slope ([3]; 100 µM): 7.44 ± 0.55 mV
V0.5 Normalized tail current ([3]; 100 µM): -42.05 ± 0.63 mV
Slope ([1]; 100 µM): 4.89 ± 0.45 mV
V0.5 Normalized tail current ([1]; 100 µM): -51.70 ± 0.51 mV
shift in V0.5act ([1]; 100 µM): only weakly negative-shifted

O=C(O)[C@]1(O)C[C@@H](O)[C@@H](O)[C@H](O)C1 [Quinic acid, quinic acid]
Slope ([3]; 100 µM): 4.07 ± 0.85 mV
V0.5 Normalized tail current ([3]; 100 µM): -47.87 ± 0.94 mV
V0.5 non-normalized tail current ([3]; 100 µM): -45.78 ± 1.64 mV
Slope ([1]; 100 µM): 3.96 ± 0.88 mV
V0.5 Normalized tail current ([1]; 100 µM): -53.04 ± 1.09 mV
V0.5 non-normalized tail current ([1]; 100 µM): -51.87 ± 2.53 mV
shift in V0.5act ([1]; 100 µM): ~ −10 mV

O=C(/C=C/c1ccc(O)c(O)c1)O[C@H](Cc1ccc(O)c(O)c1)C(=O)O [Rosmarinic acid]
IC50 [6]: 49.9 µM
Slope ([1]; 100 µM): 4.36 ± 0.60 mV
V0.5 Normalized tail current ([1]; 100 µM): -49.64 ± 0.84 mV
V0.5 non-normalized tail current ([1]; 100 µM): -50.09 ± 3.47 mV

COc1cc(C(=O)O)cc(OC)c1O [Syringic acid]
Slope ([3]; 100 µM): 5.13 ± 0.75 mV
V0.5 Normalized tail current ([3]; 100 µM): -47.76 ± 0.91 mV
V0.5 non-normalized tail current ([3]; 100 µM): -44.21 ± 2.07 mV
Slope ([1]; 100 µM): 4.92 ± 1.03 mV
V0.5 Normalized tail current ([1]; 100 µM): -49.16 ± 1.21 mV
V0.5 non-normalized tail current ([1]; 100 µM): -51.58 ± 5.36 mV

C[C@H]1[C@H](C)CC[C@]2(C(=O)O)CC[C@]3(C)C(=CC[C@@H]4[C@@]5(C)CC[C@H](O)C(C)(C)[C@@H]5CC[C@]43C)[C@H]12 [Ursolic acid]
Slope ([1]; 100 µM): 4.49 ± 0.53 mV

CCOC(=O)Nc1ccc(NCc2ccc(F)cc2)cc1N [retigabine]
shift in V0.5 of KCNQ3/5 activation ([7]; 30 µM): −31.8 mV
EC50 [7]: 1400 nM

Oc1cc(Cl)ccc1Oc1ccc(Cl)cc1Cl [triclosan]
EC50 [8]: 32 µM

COC[C@H]1OC(=O)c2coc3c2[C@@]1(C)C1=C(C3=O)[C@@H]2CCC(=O)[C@@]2(C)C[C@H]1OC(C)=O [wortmannin, reference compound]
reduction of KCNQ3* current magnitude ([1]; wortmannin pretreatment to reduce PIP2): ~ fivefold
